{
  "source": "patent US9296778B2",
  "about": "“3′,5′-cyclic phosphate prodrugs for HCV infection” (Idenix Pharmaceuticals, Inc., priority 2012, dated 2016)",
  "key": {"[1]": {"assay": "Liver pharmacokinetics following a single oral dose in CD-1 mice", "type": "in vivo", "conditions": "single oral dose 25 mg/kg in PEG 200, CD-1 male mice; given at 1 μmol/kg", "in_short": "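Male CD-1 mice given 25 mg/kg test compound orally in PEG 200; liver snap-frozen in situ at 4, 12 and 24 h (3 per time). Liver 2′-MeGTP measured after TCA homogenization and anion-exchange SPE by LC-MS/MS, calibration 50–50000 pmol/g liver.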"}, "[2]": {"assay": "Plasma pharmacokinetics following a single oral dose in CD-1 mice", "type": "in vivo", "conditions": "single oral dose 25 mg/kg in PEG 200, CD-1 male mice; given at 1 μmol/kg", "in_short": "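Male CD-1 mice given a single oral 25 mg/kg dose in PEG 200, with terminal plasma and liver taken from three animals per time point at 4, 12 and 24 h. Plasma 2′-methylguanosine measured by LC-MS/MS in positive ion mode with a deuterated internal standard, calibrated over 0.500 (LLOQ) to 200 ng/mL.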"}, "[3]": {"assay": "Stability in simulated intestinal fluid", "type": "in vitro ADME", "conditions": "100 μM, 2 hours at 37° C., percent of the peak area at time zero", "in_short": "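Compounds at 100 μM final, in duplicate, kept 2 h at 37° C in USP gastric fluid (pepsin) or intestinal fluid (pancreatin). Quenched with cold acetonitrile, supernatant analysed by C-18 HPLC, UV 252 nm. Remaining compound expressed as percent of time-zero peak area.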"}, "in vitro": {"assay": "in vitro", "conditions": "human, HCV Replicon CC50, Zluc cells, CellTiter-Blue"}},
  "data": [
    {"smiles": "CCOc1nc(N)nc2c1ncn2[C@@H]1O[C@@H]2COP(=O)(OCCCC(=O)OC(C)C)O[C@H]2[C@@]1(C)F", "note": "(single isomer, unassigned) [Compound 20 Diastereomer 1]", "values": [
      {"measurement": "Ms Liver 2′-MeGTP AUC", "setting": "[1]", "result": 410, "unit": "pmol · hr/g at 1 μmol/kg"},
      {"measurement": "Ms Plasma 2′-MeG AUC", "setting": "[2]", "result": 58, "unit": "pmol · hr/mL at 1 μmol/kg"},
      {"measurement": "Ms Plasma 2′-MeG Cmax", "setting": "[2]", "result": 5.9, "unit": "pmol/mL at 1 μmol/kg"},
      {"measurement": "Stability SIF", "setting": "[3]", "result": 95, "unit": "%"},
      {"measurement": "CC50", "setting": "in vitro", "result": "> 50", "unit": "µM"}
    ]}
  ]
}
